Laboratory results reported in patent publication US20110256064A1, “Novel Compounds for the Treatment of Diseases Associated with Amyloid or Amyloid-like Proteins” (AC Immune, S.A., priority 2010, published 2011).

target: T1, A®1-42 peptide (Homo sapiens, UniProt P05067); experiment: Thioflavin T spectrofluorescence assay (ThT-assay), inhibition of A®1-42 aggregation; format: biochemical; details: 330 µM small molecule, 33 µM A®1-42 (molar ratio 10:1), 10 µM ThT, 12.8% DMSO in PBS, 24 hrs at 37° C.; mean +/- SD of two independent experiments
T1 construct: A®1-42 lyophilized powder (Bachem) was reconstituted in hexafluoroisopropanol (HFIP) to 1 mM; purchased Bachem
T1 sequence (P05067 672-713): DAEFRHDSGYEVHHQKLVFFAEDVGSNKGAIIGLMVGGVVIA
Experimental: The capacity of the compounds of the invention to inhibit the aggregation of A®1-42 peptide was determined by using the thioflavin T spectrofluorescence assay (ThT-assay) as described below.
A®1-42 lyophilized powder (Bachem) was reconstituted in hexafluoroisopropanol (HFIP) to 1 mM. The peptide solution was sonicated for 15 min at room temperature, agitated overnight, and aliquots were placed into non-siliconized microcentrifuge tubes. The HFIP was then evaporated under a stream of argon. The resulting peptide film was dried under vacuum for 10 min, tightly sealed and stored at −80° C. until used.
An A®1-42 peptide film was dissolved in DMSO to reach 400 ? M. An assay solution in PBS was prepared in non-siliconized incubation tubes to reach the following concentrations: 330 ? M small molecule, 33 ? M A®1-42, 10 ? M thioflavin T (ThT), and 12.8% DMSO. Therefore, the final molar ratio of small molecule to A®1-42 was 10:1. A positive control without a small molecule was prepared to measure maximum RFU. A negative control without A®1-42 was prepared for each small molecule. The 3-amino-pyrazole trimer (Rzepecki et. al. Synthesis 2003, 1815) was tested as a reference compound in all assays to ascertain reproducibility between independent experiments. The solutions were then incubated for 24 hrs at 37° C., and the spectrofluorescence (relative fluorescence units; RFU) read in six replicates in black 384-well assay plates (Perkin-Elmer) on a Perkin-Elmer FluoroCount spectrofluorometer. Inhibition of aggregation is expressed as mean % inhibition±1 standard deviation (SD) according to the following equation: […]

SMILES	inhibition at 330 µM
FC(F)(F)c1ccc(Nc2cncc(NCC3CCNCC3)c2)cn1 [Example 1]	38 ± 0.6%
c1ncc(N2CCOCC2)cc1N1CCOCC1 [Example 2]	15.7 ± 6.1%
FC(F)(F)c1ccc(Nc2cncc(N3CCOCC3)c2)cn1 [Example 3]	36.9 ± 17.2%
c1cc2c(C3CCNCC3)c[nH]c2cc1Nc1cncc(N2CCOCC2)c1 [Example 4]	53.3 ± 7.6%
c1ncc(N2CCNCC2)cc1N1CCNCC1 [Example 5]	60.1 ± 7.8%
Fc1cc(F)cc(Nc2cncc(N3CCNCC3)c2)c1 [Example 6]	62.5 ± 7.4%
FC(F)(F)c1ccc(Nc2cncc(N3CCNCC3)c2)cn1 [Example 7]	28.3 ± 3.2%
c1ncc(NCC2CCNCC2)cc1NCC1CCNCC1 [Example 8]	69.5 ± 1.4%
Fc1cc(F)cc(Nc2cncc(NCC3CCNCC3)c2)c1 [Example 9]	55 ± 7.4%
FC(F)(F)c1ccc(Nc2cncc(NCC3CCNCC3)c2)cc1 [Example 10]	73.9 ± 4.7%
c1cc2ccc(Nc3cncc(NCC4CCNCC4)c3)nc2[nH]1 [Example 11]	62.7 ± 2.1%
c1ncc(Nc2ccc3c(C4CCNCC4)c[nH]c3c2)cc1NCC1CCNCC1 [Example 12]	95.4 ± 0.8%
c1ncc(Nc2ccc3c4c([nH]c3n2)CCCC4)cc1NCC1CCNCC1 [Example 13]	100 ± 4.4%
FC1(CNc2cncc(Nc3ccc(C(F)(F)F)nc3)c2)CCNCC1 [Example 14]	86.2 ± 4.7%
FC1(CNc2cncc(Nc3ccc4c5c([nH]c4n3)CCCC5)c2)CCNCC1 [Example 15]	95.7 ± 0.4%
FC1(CNc2cncc(Nc3ccc(C(F)(F)F)cc3)c2)CCNCC1 [Example 16]	62.9 ± 8.2%
Cn1c2c(c3ccc(Nc4cncc(NCC5(F)CCNCC5)c4)nc31)CCCC2 [Example 17]	96.5 ± 1.4%
CN1CCC(CNc2cncc(Nc3ccc(C(F)(F)F)nc3)c2)CC1 [Example 18]	29.5 ± 0.1%
FC(F)(F)c1ccc(Nc2cncc(NCC3CCOCC3)c2)cn1 [Example 19]	40.2 ± 6.3%
FC(F)(F)c1ccc(Nc2cncc(NCC3CCOCC3)c2)cc1 [Example 20]	51.7 ± 0.3%
